From patent US20110033946A1, “DETECTION OF SHORT-CHAIN FATTY ACIDS IN BIOLOGICAL SAMPLES” (HEMAQUEST PHARMACEUTICALS, INC., priority 2009, published 2011)

Experiment: Stock solution stability at approximately 4° C. (old vs new stock peak areas)
Assay type: physicochemical
Conditions: for Stock solution stability, RE % (to New) of old stock peak area: approximately 4° C.
Description: The following LC-MS/MS conditions were applied for the analysis of underivatized sodium 2,2-dimethylbutyrate and DMV for stock solution stability analysis (2 to 3.5 month), and system suitability associated with these analyses: The following samples were also analyzed either in conjunction with one of the precision and accuracy runs or in one of the additional validation runs. Samples from six lots of control human plasma for specificity. Samples from six lots of control human plasma fortified with internal standard for specificity. Two concentration levels of unextracted QC-samples in triplicate (solvent standards) were analyzed for the evaluation of the recovery of sodium 2,2-dimethylbutyrate and DMV in human plasma. Two levels of QC samples (Low QC and High QC in triplicate) were subjected to three freeze/thaw cycles at approximately −70° C. prior to extraction to evaluate freeze/thaw stability. Two levels of QC samples (Low QC and High QC in triplicate) were placed on the bench top for approximately 17 hours prior to extraction for the evaluation of the bench top stability. Triplicate low QC samples and triplicate high QC samples were stored for one month and three months in a freezer at approximately −70° C., and then extracted and analyzed to evaluate long term stability in human plasma. Two levels of extracted QC samples (Low QC and High QC) were re-analyzed after approximately 71 hours in the autosampler at room temperature to evaluate the extract autosampler stability. Two levels of extracted QC samples (Low QC and High QC) were re-analyzed after approximately 8 hours in the freezer at approximately −20° C. to evaluate the extract freeze stability. Three aliquots of a dilution QC sample diluted 10-fold. Triplicate dilutions of the old stock solution (stored at approximately 4° C.) and new stock solutions prepared at intervals of two weeks and one month. Statistical calculations in the report tables were calculated from unrounded concentration values taken directly from the raw data. The concentration values were rounded for display purposes. Fresh stock solutions of sodium 2,2-dimethylbutyrate were prepared at intervals of two weeks and 1, 2, 3 and 3.5 months after the initial standard preparation. Similarly, the stability intervals for DMV were two weeks and 1, 2 and 3 months. The initial (or old) stock solutions and the fresh stock solutions were diluted into the calibration standard range and analyzed. The peak areas for the fresh (new) and old standard solutions were compared. Beginning with the 2-month stability analysis, sodium 2,2-dimethylbutyrate and DMV stock solutions were analyzed underivatized. This was done since the peak areas of both sodium 2,2-dimethylbutyrate and DMV varied among replicate derivatized preparations. Analyzing the standard solutions underivatized was a simpler procedure which gave more accurate and precise results

CCCC(C)(C)C(=O)O [DMV, 2,2-Dimethylvaleric acid, reference compound]
Stock solution stability, RE % (to New) of old stock peak area (1 Month Interval): 23.9% | Stock solution stability, RE % (to New) of old stock peak area (2 Month Interval, underivatized): 14.3% | Stock solution stability, RE % (to New) of old stock peak area (2 Week Interval): 16.7% | Stock solution stability, RE % (to New) of old stock peak area (3 Month Interval, underivatized): 17.8% | Stock solution stability, RE % (to New) of old stock peak area (~2 Month Interval, repeated with the 1 month stock solution as old, underivatized): −7.2% | Time stock solutions are stable (stock solution in acetonitrile/water stored in a refrigerator at approximately 4° C.): at least 2 months
